# Results from a melting point compilation (Tetko et al.; mined from patent text by program, amines drawn as free bases though some values may be those of a salt).
row,SMILES,melting point [°C]
1,N=C(N)NOc1nccc2ccccc12,162 to 164
2,COc1cc(NC(=O)Nc2ccccc2)c(O)c(C(C)(C)C)c1,147 to 149
3,CN1C2CCC1CC(c1n[nH]c3ccccc13)C2 (stereo unspecified),191 to 192
4,COc1ccc(-c2c(Cl)c(CN3C(=O)CSC3=O)nc3sc4c(c23)CC[C@H](C(N)=O)C4)cc1,145 to 148
5,N#Cc1ncn2c1[C@@H]1CCCN1C(=O)c1ccccc1-2,223 to 225
6,O=S(=O)(NCCSc1cc(F)c(OCCO)c(F)c1)c1ccc(Cl)cc1,43.5 to 45
7,CCCCOc1cc(/C=C(\OCC)C(=O)O)ccc1OCCc1ccc(OS(=O)(=O)CCCC)c(F)c1,99
8,COCCCS(=O)(=O)NC(=O)/C=C/c1cc(OC(C)C)nn1Cc1ccc(C(F)(F)F)cc1Cl,138 to 139
9,CCn1c(C=NNC(N)=S)cnc1[N+](=O)[O-],220 to 222
10,O=C(O)CCc1c(-c2cc(Cl)ccc2O)c2cc(C(F)(F)F)ccc2[nH]c1=O,255 to 258
11,CCOC(=O)c1cn(Cc2ccc(OCc3nc(-c4ccccc4)oc3C)cc2)nc1O,152 to 153
12,COc1cc(OCC(CO)CO)c(-c2cccs2)cc1C=CC(=O)c1ccc(C(=O)O)cc1,199 to 201
13,OC(CN1CCN(c2ccccn2)CC1)(Cn1cncn1)c1ccc(Cl)cc1Cl (stereo unspecified),116 to 118
14,CCOC1CC(n2cc(C(F)(F)F)c(=O)[nH]c2=O)OC1CO (stereo unspecified),183 to 184
15,COc1cc(OCc2cccnc2)ccc1/C=C/c1cc(/C=C/c2cc3ccccc3[nH]2)n[nH]1,126 to 138
16,CC(C)(C)c1cc(-c2n[nH]c3ncccc23)cc(C(C)(C)C)c1O,216 to 217
17,CCCc1nc(/C=C/c2ccccc2)c(C(=O)OCC)n1Cc1cc2c(cc1Cl)OCO2,161
18,CCOC(=O)c1cc2c3n(ccc-2n1)CC(C=O)=N3,82 to 84
19,Cc1ccc(CCOc2ccnc3c(OCCc4ccc(C)cc4)cccc23)cc1,142 to 143

# The remaining lines, values ahead:
row,melting point [°C],SMILES
1,132 to 134,Cc1c(CNCC2CCOCC2)n(C)c2c(F)c(NC(=O)c3ccc(OC[C@@H]4CCCO4)cc3)ccc12
2,73 to 75,CCOC(=O)C(=O)Nc1ccccn1
3,243 to 245,CCCCc1nc(=O)c2cc(C#N)ccc2[nH]1
4,230,Cc1cc(C)cc(Sc2c(CN3CCOCC3)c(C)[nH]c(=O)c2I)c1
5,222 to 223,Cc1cc2c(cc1C)CCC(C(=O)O)=C2
6,132 to 135,CC(C)(C)C(=O)C(Cl)NC(=O)c1ccc(Cl)cc1 (stereo unspecified)
7,328 to 332,O=c1c(-c2ccccc2)c[nH]nc1-c1ccccc1
8,255 to 258,CCCC(=O)c1cc2c(=O)cc(C(=O)O)[nH]c2cc1C
9,144 to 146,CON(c1ccc([N+](=O)[O-])cc1C#N)S(=O)(=O)c1ccc(Cl)s1
10,128 to 129,CCC(=CC(CNC(=O)c1cccnc1C)=NO)C(C)[N+](=O)[O-] (stereo unspecified)
11,77,CCOC(C)=C(C#N)C(=O)c1ccc(F)cc1
12,172,C=CCNC(=S)N1CCc2[nH]cnc2C1
13,105 to 110,COc1cccc(CCNC(=O)c2ccc3c(c2)C=CC(C)(C)O3)c1
14,124,COc1ccc(C2(c3cccc(C(Cc4ccccc4)Cc4ccccc4)n3)OCCCO2)cc1OC
15,177 to 179,COc1ccccc1CNc1cc(C(=O)Nc2ccccc2)ccc1OC
16,321 to 325,CC(C)NC1=NS(=O)(=O)c2ccc(CC(N)=O)cc2N1
17,54 to 55,CCCCCCCCC(OC(C)=O)C1=CC(=O)OC1O (stereo unspecified)
18,229 to 231,N#Cc1cn(C2OC(CO)C(O)C2O)c2ncn(O)c(=O)c12 (stereo unspecified)
19,128 to 130,Cc1ccc(-c2c(N)oc3c(C(C)(C)C)cc(C(C)(C)C)cc23)cc1C
20,134,Brc1ccccc1C1=NOC2(N3CCCC3)CCCCC12 (stereo unspecified)
21,192 to 193,CCOC(=O)c1c(CN2CCNCC2)nc2cc(OC)c(OC)cc2c1-c1ccc(OC)c(OC)c1
22,280 to 285,Cc1c(Cc2ccc([N+](=O)[O-])cc2)c(=O)oc2cc(O)cc(O)c12
